One experiment concerns the target T1, RIOK2 (Homo sapiens, UniProt Q9BVS4).
T1 construct: purchased DiscoveRx (Fremont, CA)
Put plainly: KinomeScan. Type of experiment: binding. To be noted: read-out: % Control.

A further experiment addresses GPR68 (Homo sapiens, UniProt Q15743). Put plainly: Chem1-OGR1 cells washout (reversibility). Type of experiment: cell-based. On the set-up: host or cells: Chem-1 cells (Chem1-OGR1). To be noted: for reversibility of GPR68 inhibition: washout. As for the experimental part:
Chem1-GPR68 reporter cells were treated with 20 uM OM8345 for 2 hours and then rinsed with HBSS. […] The GPR68 inhibitory activity of OGM analogs segregated with the ability of the molecule to induce the phenotype in zebrafish.
Additional experiments, whereby OGM2 was resynthesized and used (due to its submicromolar potency and GPR68 specificity) were performed. See FIG. 6A (HNMR of resynthesis of OGM2) and FIG. 6B (LCMS of resynthesis of OGM2). To test the possibility of OGM2 being an irreversible inhibitor, Chem1-OGR1 cells (Millipore™) were incubated with 10 μM OGM2 for 4 hours, and after removing the compound stimulated with pH 6.4 medium. […] Time till 50% max ˜52 minutes. The signal returned back towards baseline uninhibited levels in a rapid and time-dependent manner.

The target of a further experiment is T2, GRK1 (Homo sapiens, UniProt Q15835).
T2 construct: purchased DiscoveRx (Fremont, CA)
T2 sequence (Q15835 whole entry): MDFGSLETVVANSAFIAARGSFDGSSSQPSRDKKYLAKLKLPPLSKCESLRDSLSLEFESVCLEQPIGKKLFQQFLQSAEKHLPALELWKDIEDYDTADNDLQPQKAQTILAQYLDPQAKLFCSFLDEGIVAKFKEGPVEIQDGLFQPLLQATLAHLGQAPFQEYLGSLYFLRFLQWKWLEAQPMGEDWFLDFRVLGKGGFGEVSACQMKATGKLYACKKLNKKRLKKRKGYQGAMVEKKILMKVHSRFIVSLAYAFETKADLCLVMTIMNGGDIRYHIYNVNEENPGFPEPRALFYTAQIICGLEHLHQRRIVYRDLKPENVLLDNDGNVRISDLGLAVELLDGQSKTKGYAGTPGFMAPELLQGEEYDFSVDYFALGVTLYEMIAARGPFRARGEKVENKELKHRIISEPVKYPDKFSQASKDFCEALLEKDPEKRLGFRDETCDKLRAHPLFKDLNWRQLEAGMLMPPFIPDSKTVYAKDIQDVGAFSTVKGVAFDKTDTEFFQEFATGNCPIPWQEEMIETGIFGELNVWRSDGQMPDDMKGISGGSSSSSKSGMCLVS
Put plainly: KinomeScan. Type of experiment: binding. The following applies: read-out: % Control.

In another experiment the target is CSNK1A1L (Homo sapiens, UniProt Q8N752). Put plainly: KinomeScan. Type of experiment: binding. The following applies: read-out: % Control.
Sequence of CSNK1A1L (Q8N752 whole entry): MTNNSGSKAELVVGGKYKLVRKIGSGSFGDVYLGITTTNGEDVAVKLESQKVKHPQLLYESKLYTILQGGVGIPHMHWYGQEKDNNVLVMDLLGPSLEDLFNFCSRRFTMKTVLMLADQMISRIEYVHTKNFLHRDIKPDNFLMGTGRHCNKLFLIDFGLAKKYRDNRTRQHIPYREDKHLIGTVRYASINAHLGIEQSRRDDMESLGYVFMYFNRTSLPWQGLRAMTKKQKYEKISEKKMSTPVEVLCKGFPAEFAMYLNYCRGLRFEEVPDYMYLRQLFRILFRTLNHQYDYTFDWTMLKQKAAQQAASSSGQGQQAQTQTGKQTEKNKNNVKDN
The next experiment deals with T3, GPR68/OGR1 (Homo sapiens, UniProt Q15743).
T3 construct: host or cells: Chem-1 (CHEM1-OGR1) cells
T3 sequence (Q15743 whole entry): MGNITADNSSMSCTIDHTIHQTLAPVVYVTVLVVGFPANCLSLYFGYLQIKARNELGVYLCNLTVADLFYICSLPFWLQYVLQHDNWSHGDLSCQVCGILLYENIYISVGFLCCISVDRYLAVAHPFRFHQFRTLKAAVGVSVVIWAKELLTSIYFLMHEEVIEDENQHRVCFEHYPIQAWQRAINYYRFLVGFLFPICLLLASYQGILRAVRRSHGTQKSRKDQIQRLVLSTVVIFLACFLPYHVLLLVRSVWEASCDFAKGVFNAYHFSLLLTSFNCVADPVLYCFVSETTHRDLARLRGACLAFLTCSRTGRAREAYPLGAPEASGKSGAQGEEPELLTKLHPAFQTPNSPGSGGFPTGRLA
Put plainly: CHEM1-OGR1 cells Fluo-8 calcium assay, acidified media pH 6.4. Type of experiment: cell-based. The procedure:
Briefly, the methods were: On the day before the assay 20,000 cells per well of CHEM1-OGR1 cells were plated in 10% DMEM containing 10% FBS and 1% Pen/Strep into a 96 well plate. After 24 hours media was removed and cells were stained with 80 μL Fluo-8 calcium indicator dye according to manufacturer's protocol. After staining cells were treated with 20 uL of 4× concentration of test compounds. Using kinetic imaging in the Lionheart HCS fluorescence intensity was continuously measure at 10 frames per second, for 5 seconds before 100 μL of acidified media was added to the well resulting in a pH of 6.4. A ratio of fluorescence intensities prior to addition and at peak were calculated and averaged. The resulting data were platted and using a 4 parameter logistic regression EC50 (the concentration causing 50% effective inhibition) for each test compound was determined.

The target of the next experiment is T4, BB1 (Homo sapiens, UniProt P28336).
T4 construct: host or cells: Chem-1 cells with promiscuous Gα15
T4 sequence (P28336 whole entry): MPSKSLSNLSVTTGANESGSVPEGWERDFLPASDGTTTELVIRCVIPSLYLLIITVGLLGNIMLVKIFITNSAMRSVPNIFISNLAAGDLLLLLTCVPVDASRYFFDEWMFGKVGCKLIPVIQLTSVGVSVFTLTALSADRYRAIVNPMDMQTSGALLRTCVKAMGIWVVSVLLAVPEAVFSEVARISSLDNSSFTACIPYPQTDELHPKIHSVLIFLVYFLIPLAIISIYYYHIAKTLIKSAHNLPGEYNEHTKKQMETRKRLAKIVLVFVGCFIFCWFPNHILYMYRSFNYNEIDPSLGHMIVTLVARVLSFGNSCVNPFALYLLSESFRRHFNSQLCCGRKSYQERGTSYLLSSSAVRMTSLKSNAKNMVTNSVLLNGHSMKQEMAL
The experiment in a line: GPCR Profiler. Type of experiment: cell-based.

Experiment [1] deals with human pulmonary artery endothelial cells (HPAECs). Put plainly: Cyclic stretch-triggered endothelial cell activation. To be noted: for Rho activation by 18% cyclic stretch: OGM2 at 5 μM, OGM1 at 3 μM, Rho-GTP pulldown. Type of experiment: cell-based. As for the experimental part: FIG. 33A through FIG. 33D: Cyclic stretch-triggered endothelial cell (EC) activation is abolished by OGM2 and OGM1. FIG. 33A: In human pulmonary artery endothelial cells (HPAECs), pretreatment with OGMs (OGM2 at 5 μM and OGM1 at 3 μM) abolished Rho activation by 18% cyclic stretch (18% CS), as determined by Rho-GTP pulldown assay. ST, static condition. FIG. 33B: Treatment with OGM2 or OGM1 blocked CS-triggered activation of myosin phosphatase target (MYPT) and myosin light chain (MLC) in ECs, as determined by their phosphorylation MYPT and MLC. FIG. 33C: OGM2 or OGM1 blocked CS-induced TNF-α mRNA expression in ECs. n=3, ^#P<0.05 versus ST, *P<0.05 versus 18% CS. Error bars, standard deviation. FIG. 33D: OGM2 and OGM1 blocked CS-induced VCAM-1 expression in ECs. Here, OGM=OGM2.

A further experiment has as its target T5, TAOK3 (Homo sapiens, UniProt Q9H2K8).
T5 construct: purchased DiscoveRx (Fremont, CA)
The experiment in a line: KinomeScan. Type of experiment: binding. The following applies: read-out: % Control.

Another experiment addresses T6, SRPK2 (Homo sapiens, UniProt P78362).
T6 construct: purchased DiscoveRx (Fremont, CA)
The experiment in a line: KinomeScan. Type of experiment: binding. The following applies: read-out: % Control.

Another experiment has as its system Daoy. Put plainly: Cell Titer-Glo viability, Medulloblastoma. Type of experiment: cell-based. To be noted: 72 hours. The procedure: OGM2 kills wide variety of cancer cell types. Cell sensitivity can be classified in to Very Sensitive (LC50<2 μM), Sensitive (LC50=2 to 10 μM), Mildly Sensitive (LC50>10 μM), and Refractory (no killing at 10 μM). The listed established cell were incubated with OGM2 at 2 μM or 10 μM for 72 hours under standard cell culture conditions, and relative cell number was assessed using Cell Titer-Glo Luminescent Cell Viability Assay (Promega™) following the manufacturer's instructions. Luminescence was determined using a Cytation 5 reader and Gen5 software package (BioTek™).
Cancer cells, which are very sensitive to killing by OGM2 (LCs <2 μM), with reported mRNA expression of GPR68 and the related proton sensing receptor GPR4. LC50's (concentrations causing 50% lethality) were determined using CellTiter-Glo (Promega™, G7570). Cells were plated in 12-well plates (CELLTREAT Scientific Products, 229112) in 1 ml of DMEM with high glucose, GlutaMAX, HEPES, or RPMI 1640 with Penicillin-Streptomycin (ThermoFisher™, 10564029, 11875119 and 15140122) and 10% FBS. Cells were incubated overnight at 37° C. in 5% CO2. Then 1 mL of fresh media was added with DMSO, OGM, or positive control (Erastin; APExBIO Technology, LLC, B1524) and cells incubated for 3 days. On the third day, all media was removed, cells were rinsed with 1×PBS, PBS was removed, and 200 μL of 1× Passive Lysis Buffer (Promega™, E1941) was added to each well. […]. […] Plates were briefly spun down and read on a GloMax-Multi Detection System (Promega™).
The cells listed in the tables above were incubated with OGM2 at 2 μM or 10 μM for 72 hours under standard cell culture conditions, and relative cell number was assessed using Cell Titer-Glo Luminescent Cell Viability Assay (Promega™) following the manufacturer's instructions. Luminescence was determined using a Cytation 5 reader and Gen5 software package (BioTek™). […] The consensus normalized expression value (“nTPM”=normalize transcript per million) was calculated as the maximum nTPM value for each gene in the two data sources.

Where [2] appears, read: concentration causing 50% effective inhibition of calcium response to pH 6.4, read-out: EC50.

Where two headings read alike, the source gives them in different places.

Sequence of GPR68 (Q15743 whole entry): as the sequence (Q15743 whole entry) above
T6 sequence (P78362 whole entry): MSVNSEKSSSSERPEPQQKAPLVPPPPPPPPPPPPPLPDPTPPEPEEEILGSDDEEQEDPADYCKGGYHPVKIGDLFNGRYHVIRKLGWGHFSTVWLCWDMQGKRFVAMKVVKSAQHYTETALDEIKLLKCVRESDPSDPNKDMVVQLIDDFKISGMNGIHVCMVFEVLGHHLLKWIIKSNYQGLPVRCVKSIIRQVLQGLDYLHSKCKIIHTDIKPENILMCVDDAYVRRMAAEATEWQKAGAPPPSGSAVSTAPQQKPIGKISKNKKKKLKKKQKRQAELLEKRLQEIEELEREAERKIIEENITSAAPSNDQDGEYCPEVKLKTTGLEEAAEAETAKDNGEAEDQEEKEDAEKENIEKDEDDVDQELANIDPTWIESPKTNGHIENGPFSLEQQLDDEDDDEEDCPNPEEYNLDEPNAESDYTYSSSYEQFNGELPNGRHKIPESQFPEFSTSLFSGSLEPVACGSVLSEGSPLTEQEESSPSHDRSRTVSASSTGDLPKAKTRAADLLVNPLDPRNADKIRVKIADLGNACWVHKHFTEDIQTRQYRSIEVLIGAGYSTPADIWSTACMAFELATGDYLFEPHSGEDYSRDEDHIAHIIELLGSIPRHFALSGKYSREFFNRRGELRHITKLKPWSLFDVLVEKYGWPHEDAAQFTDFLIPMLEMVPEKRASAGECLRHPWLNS
T1 sequence (Q9BVS4 whole entry): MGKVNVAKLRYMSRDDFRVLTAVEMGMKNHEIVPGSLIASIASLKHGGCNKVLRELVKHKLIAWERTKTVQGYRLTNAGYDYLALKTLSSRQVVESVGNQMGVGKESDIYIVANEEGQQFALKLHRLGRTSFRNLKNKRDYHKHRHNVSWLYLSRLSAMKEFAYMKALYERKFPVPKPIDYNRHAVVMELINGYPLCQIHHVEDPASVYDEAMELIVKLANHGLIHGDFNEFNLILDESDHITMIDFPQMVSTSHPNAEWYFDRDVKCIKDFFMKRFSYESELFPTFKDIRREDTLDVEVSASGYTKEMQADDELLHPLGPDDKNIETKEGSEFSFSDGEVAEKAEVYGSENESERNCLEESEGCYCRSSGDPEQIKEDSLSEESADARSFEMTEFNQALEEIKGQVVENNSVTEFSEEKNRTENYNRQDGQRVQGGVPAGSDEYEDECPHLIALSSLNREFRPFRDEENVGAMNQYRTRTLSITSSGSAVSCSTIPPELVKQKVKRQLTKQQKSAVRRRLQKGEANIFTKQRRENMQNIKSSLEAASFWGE
T5 sequence (Q9H2K8 whole entry): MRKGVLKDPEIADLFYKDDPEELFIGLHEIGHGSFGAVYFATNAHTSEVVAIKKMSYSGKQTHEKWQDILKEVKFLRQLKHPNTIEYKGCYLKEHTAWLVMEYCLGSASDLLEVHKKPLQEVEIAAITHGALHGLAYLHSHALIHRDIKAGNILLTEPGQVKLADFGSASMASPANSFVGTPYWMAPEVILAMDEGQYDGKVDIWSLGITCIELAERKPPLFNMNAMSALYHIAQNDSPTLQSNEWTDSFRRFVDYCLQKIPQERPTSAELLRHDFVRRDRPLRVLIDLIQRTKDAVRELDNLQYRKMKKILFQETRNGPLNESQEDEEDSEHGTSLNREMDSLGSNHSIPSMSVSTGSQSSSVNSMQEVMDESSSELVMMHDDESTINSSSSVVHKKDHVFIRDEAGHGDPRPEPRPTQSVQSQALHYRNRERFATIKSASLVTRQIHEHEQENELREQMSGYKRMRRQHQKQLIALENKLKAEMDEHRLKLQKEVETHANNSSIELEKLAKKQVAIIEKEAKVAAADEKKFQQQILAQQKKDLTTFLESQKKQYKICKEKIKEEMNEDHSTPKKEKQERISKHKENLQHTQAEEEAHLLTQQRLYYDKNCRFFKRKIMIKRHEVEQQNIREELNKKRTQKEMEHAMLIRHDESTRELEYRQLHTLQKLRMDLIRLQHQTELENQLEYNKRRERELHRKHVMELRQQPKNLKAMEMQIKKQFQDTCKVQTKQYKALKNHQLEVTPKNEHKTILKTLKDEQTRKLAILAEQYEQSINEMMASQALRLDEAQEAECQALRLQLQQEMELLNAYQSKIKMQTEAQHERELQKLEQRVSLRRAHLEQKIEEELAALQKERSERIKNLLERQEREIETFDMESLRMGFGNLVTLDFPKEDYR

Take `CCc1ccc2c(c1)C1(NN=C(c3cccc4ccccc34)S1)C(=O)N2` (stereo not drawn) [OGM1, 5-ethyl-5′-naphthalen-1-ylspiro[1H-indole-3,2′-3H-1,3,4-thiadiazole]-2-one]: the remaining binding at 10 µM stood at 100% on RIOK2; 100% on GRK1; 100% at CSNK1A1L; 79% on TAOK3; 100% at SRPK2. For the same molecule, the “reversibility of GPR68 inhibition” value on GPR68 is “reversible inhibitor of GPR68”. The EC50 at GPR68/OGR1 (Table 5, read-out: GPR68) was 160 nM; at GPR68/OGR1 (setting [2]) it was 306 nM. This molecule had an Antagonism on BB1 (10 uM) of 3.5. The molecule also registered an Agonism on BB1 (12.5 uM) of −0.2. Further, in [1], the “CS-induced TNF-α mRNA expression” value is given as “blocked”. Besides, the “CS-induced VCAM-1 expression” value in [1] is listed as “blocked”. The “Rho activation by 18% cyclic stretch” value in experiment [1] is given as “abolished”.
Regarding `CCc1ccc2c(c1)C1(NN=C(c3ccccc3)S1)C(=O)N2` (stereo not drawn) [OGM2], on GPR68 (recovery of GPR68 activity after washout, 10 μM OGM2 for 4 hours, pH 6.4 medium), the “Time till 50% max” value is around 52 min. In addition, on GPR68, the “reversibility of GPR68 inhibition” value is “reversible and highly specific inhibitor of GPR68”. The “reversibility of GPR68 inhibition” value on GPR68 (listed as OM8345) is “reversible inhibition of GPR68”. For the same molecule, the EC50 on GPR68/OGR1 (Table 5, read-out: GPR68) stood at 710 nM. Also, on GPR68/OGR1 (setting [2]), the EC50 stood at 710 nM. In [1], the “CS-induced TNF-α mRNA expression” value is “blocked”, the “CS-induced VCAM-1 expression” value was “blocked” and the “Rho activation by 18% cyclic stretch” value is listed as “abolished”. For the same molecule, in the experiment with Daoy, the “% Survival 2 μM OGM” value turned out to be 9.0% and the “% Survival 10 μM OGM” value is recorded as 10.5%. For the same molecule, the CC50 in the experiment on Daoy (Homo sapiens, Daoy, read-out: LC50 (the source's name)) was below 2000 nM.

The values above are taken from US20240327364A1, “THERAPEUTIC TARGETING OF GPR68 TO INDUCE FERROPTOSIS” (University Of Maryland, Baltimore, priority 2023, published 2024).
